Legend:
[1] = cited from earlier work
[2] = glucose levels in blood, streptozocin-induced diabetes type I model; type: in vivo, rat; details: for effect on glucose level in the blood: diabetic rats (streptozocin 70 mg/Kg), conjugate subcutaneous
Experimental: 3.00 g of the aldehyde derivative of HA (activated intermediate) according to Example 1 are dissolved at a concentration of 10 mg/ml in an acid environment by the presence of phosphoric acid at a temperature of 60° C. for 2 hours. 4×10^−5 moles of insulin, 4×10^−1 moles of cyanoborohydride are added to the hydrolyzed product previously cooled and the pH is regulated to 6.0. After 24 h of reaction, the adduct is purified and analyzed via dimensional exclusion chromatography; the relative chromatogram is visible in FIG. 8. The activity in vivo of the conjugate is evaluated on a model of induced diabetes type I in a rat after administration of streptozocin at a dose of 70 mg/Kg.
The HA-Insulin conjugate is administered subcutaneously at a dose of 5 or 20 μg of equivalent insulin. The biological activity of the conjugate is tested through the determination of the glucose levels in the blood of animals, measured by means of commercial kits (OneTouch® II, LifeScan, Johnson & Johnson), The control consists of healthy rats (group 1) and rats with induced diabetes treated with insulin (group 2). The results are illustrated in FIG. 9.

[3] = tested on: cyclic 2′,3′-cytidine monophosphate (2′,3′-CMC); experiment: residual enzymatic activity of RNAse A, free or bound to HA (absorption increase at 287 nm); type: biochemical; details: hydrolysis of 2′,3′-CMC, absorption at 287 nm
Experimental: 1.00 g of the aldehyde derivative of HA according to Example 1 are dissolved at a concentration of 8 mg/ml in an acid environment by the presence of phosphoric acid at a temperature of 50° C. for 2 hours. The pH is regulated to 6.0 and 2×10^−5 moles of RNAse A and 2×10^−1 moles of cyanoborohydride are added to the hydrolyzed product previously cooled. At this pH the reaction takes place specifically at the N-terminal end of the protein. After 24 h of reaction, the adduct is purified by dialysis against water and then freeze-dried. The corresponding GPC chromatogram registered under the conditions described in Example 14 can be found in FIG. 7. This type of conjugate is optimally suitable for measuring in vitro the residual activity of the enzyme, using a specific kit based on the evaluation of the absorption increase at 287 nm with time, determined by hydrolysis of the specific synthetic substrate cyclic 2′,3′-cytidine monophosphate (2′,3′-CMC).
A comparison of the residual activity of the enzyme, free or bound to HA, produces the following results: […]

Calcitonin
absorption half-life [1]: 10 to 15 min
elimination half-life [1]: 50 to 80 min

HA-Insulin: hyaluronic acid aldehyde derivative conjugated to insulin
effect on glucose level in the blood ([2]; 5 or 20 μg equivalent insulin): exerted more slowly, but has a considerably prolonged duration with time
effectiveness relative to the conjugated drug (insulin) ([2]; diabetic rats, subcutaneous): doubling the effectiveness
time span to bring glucose to a lower level than the group treated with insulin alone ([2]; diabetic rats, subcutaneous, 5 or 20 μg equivalent insulin): ≤ 5 h
duration for which the glucose lowering effect is maintained ([2]; diabetic rats, subcutaneous, duration of the experiment): 24 h

insulin: free insulin, control treatment of diabetic rats [reference compound]
effect on glucose level in the blood ([2]; 5 or 20 μg equivalent insulin): sudden decrease in the glucose level in the blood, which however returns to high values in a relatively rapid time scale

B1: RNAsi A: free enzyme RNAse A (protein, UniProt P61823 27-150, looked up)
Ribonuclease pancreatic: KETAAAKFERQHMDSSTSAASSSNYCNQMMKSRNLTKDRCKPVNTFVHESLADVQAVCSQKNVACKNGQTNCYQSYSTMSITDCRETGSSKYPNCAYKTTQANKHIIVACEGNPYVPVHFDASV
% Relative enzymatic activity [3]: 100%

B2: HA-Ac-RNAsi A: hyaluronic acid aldehyde derivative conjugated to RNAse A at the N-terminal end (conjugate, UniProt P61823 27-150, looked up)
Ribonuclease pancreatic: B1 Ribonuclease pancreatic
modifications: hyaluronic acid aldehyde conjugate
notes: hyaluronic acid aldehyde derivative conjugated to RNAse A at the N-terminal end
% Relative enzymatic activity [3]: 95.23%

— patent publication US9034624B2, “Process for the synthesis of conjugates of glycosaminoglycanes (GAG) with biologically active molecules, polymeric conjugates and relative uses thereof” (FIDIA FARMACEUTICI S.P.A., priority 2009, dated 2015)
